Laboratory results reported in patent publication US20020049205A1, “Pyrazole antimicrobial agents” (priority 2000, published 2002).

What was measured:
[1] = target: T1, Sigma^70 saturated E. coli RNA Polymerase (Escherichia coli, UniProt P0A7Z4+P0A800+P0A8T7+P0A8V2); experiment: IC50 assay, inhibition of RNA polymerase; assay type: biochemical
T1 construct: purchased Epicenter
Description: One common assay involves evaluation of the compounds as RNA polymerase inhibitors. In this assay, buffer (250 mM KCl, 5% glycerol, 10 mM MgCl2, 0.1 mg/ml BSA) is combined with 6 mM β-M.E., PT5 DNA template, and 1.3 μg/rxn Sigma^70 saturated E. coli RNA Polymerase (Epicenter). The compound is then added in a manner not to exceed 5% DMSO. Nucleotide triphosphates are then added at the following concentration: 250 μM ATP, CTP and UTP with 100 μM cold CTP and 50 μM α-^32P CTP. The mixture is incubated for 10 min at about 37° C. A [2×] loading buffer is added and the mixture is then run on a 6% urea denaturing PAGE until bromophenol blue reaches the edge of plate. The gel is soaked (about 20 minutes in 10% MeOH and 10% acetic acid, to remove urea), then dried (about 55 minutes at about 85° C. (BioRad Gel Drier)) and exposed to a Phospho Imaging Plate for 1 hour. The plate is then read on a Fujix Bas1000 Imaging System and quantified using MacBas v2.0 software. An IC50 (in μM) can be calculated as the concentration of a drug which reduces the enzyme activity to 50% of the control.
In this assay, buffer (250 mM KCl, 5% Glycerol, 10 mM MgCl2, 0.1 mg/ml bovine serum albumin (BSA)) is combined with 6 mM β-mercaptoethanol, PT5 DNA template, and 1.3 μg/rxn Sigma^70 saturated E. coli RNA Polymerase (obtained from Epicenter). The compound is then added in a manner not to exceed 5% DMSO. Nucleotide triphosphates are then added at the following concentration: 250 μM ATP, CTP and UTP with 100 μM cold CTP and 50 μM α-32P CTP. The mixture is incubated for 10 min at about 37° C. A [2×] loading buffer is added and the mixture is then run on a 6% urea denaturing PAGE until bromophenol blue reaches the edge of plate. The gel is soaked (about 20 minutes in 10% MeOH and 10% acetic acid, to remove urea), then dried (about 55 minutes at about 85° C. (BioRad Gel Drier)) and exposed to a Phospho Imaging Plate for 1 hour. The plate is then read on a Fujix Bas1000 Imaging System and quantified using MacBas v2.0 software. An IC50 (in μM) can be calculated as the concentration of a compound of the invention that reduces the enzyme activity to 50% of the control. For the sake of clarity, the above-described assay is used to determine the IC50 values referenced in the claims. However, the skilled artisan will recognize that other methods can be used to determine an IC50 value.

B. su = experiment: Minimum Inhibitory Concentration assay, B. su; assay type: cell-based; details: LB medium, 16 hours, 37° C.
Description: (§1) For Minimum Inhibitory Concentration (MIC) determinations for selected bacteria, log phase growing bacteria are re-suspended at 1×10^5 bacteria per mL in LB medium. The compound is added and two-fold dilutions are made. The final volume in the 96-well plate is about 100 μL. The plate is incubated at 37° C. in the dark with shaking. After 16 hours of incubation, growth is monitored by reading A600 or by visual inspection. MIC is defined as the minimum concentration of drug resulting in inhibition of visible growth of bacterial under the conditions described (above) in National Committee for Clinical Laboratory Standards 1993. Methods for dilution antimicrobial susceptibility tests for bacteria that grow aerobically. Approved standard M7-A3; National Committee for Clinical Laboratory Standards: Villanova, Pa.
as §1, with “MIC” for “Minimum Inhibitory Concentration (MIC)”

S. au = experiment: Minimum Inhibitory Concentration assay, S. au; assay type: cell-based; details: LB medium, 16 hours, 37° C.
Description: as §1
as §1, with “MIC” for “Minimum Inhibitory Concentration (MIC)”

E.c(tolC) = experiment: Minimum Inhibitory Concentration assay, E.c(tolC); assay type: cell-based; details: 16 h, read-out: MIC (μM) E.c(tolC)
Description: as §1
as §1, with “MIC” for “Minimum Inhibitory Concentration (MIC)”

[2] = Table 2, compounds of Formula 13
[3] = Table 1, compounds of Formula 1

T1 sequence (P0A8V2 whole entry): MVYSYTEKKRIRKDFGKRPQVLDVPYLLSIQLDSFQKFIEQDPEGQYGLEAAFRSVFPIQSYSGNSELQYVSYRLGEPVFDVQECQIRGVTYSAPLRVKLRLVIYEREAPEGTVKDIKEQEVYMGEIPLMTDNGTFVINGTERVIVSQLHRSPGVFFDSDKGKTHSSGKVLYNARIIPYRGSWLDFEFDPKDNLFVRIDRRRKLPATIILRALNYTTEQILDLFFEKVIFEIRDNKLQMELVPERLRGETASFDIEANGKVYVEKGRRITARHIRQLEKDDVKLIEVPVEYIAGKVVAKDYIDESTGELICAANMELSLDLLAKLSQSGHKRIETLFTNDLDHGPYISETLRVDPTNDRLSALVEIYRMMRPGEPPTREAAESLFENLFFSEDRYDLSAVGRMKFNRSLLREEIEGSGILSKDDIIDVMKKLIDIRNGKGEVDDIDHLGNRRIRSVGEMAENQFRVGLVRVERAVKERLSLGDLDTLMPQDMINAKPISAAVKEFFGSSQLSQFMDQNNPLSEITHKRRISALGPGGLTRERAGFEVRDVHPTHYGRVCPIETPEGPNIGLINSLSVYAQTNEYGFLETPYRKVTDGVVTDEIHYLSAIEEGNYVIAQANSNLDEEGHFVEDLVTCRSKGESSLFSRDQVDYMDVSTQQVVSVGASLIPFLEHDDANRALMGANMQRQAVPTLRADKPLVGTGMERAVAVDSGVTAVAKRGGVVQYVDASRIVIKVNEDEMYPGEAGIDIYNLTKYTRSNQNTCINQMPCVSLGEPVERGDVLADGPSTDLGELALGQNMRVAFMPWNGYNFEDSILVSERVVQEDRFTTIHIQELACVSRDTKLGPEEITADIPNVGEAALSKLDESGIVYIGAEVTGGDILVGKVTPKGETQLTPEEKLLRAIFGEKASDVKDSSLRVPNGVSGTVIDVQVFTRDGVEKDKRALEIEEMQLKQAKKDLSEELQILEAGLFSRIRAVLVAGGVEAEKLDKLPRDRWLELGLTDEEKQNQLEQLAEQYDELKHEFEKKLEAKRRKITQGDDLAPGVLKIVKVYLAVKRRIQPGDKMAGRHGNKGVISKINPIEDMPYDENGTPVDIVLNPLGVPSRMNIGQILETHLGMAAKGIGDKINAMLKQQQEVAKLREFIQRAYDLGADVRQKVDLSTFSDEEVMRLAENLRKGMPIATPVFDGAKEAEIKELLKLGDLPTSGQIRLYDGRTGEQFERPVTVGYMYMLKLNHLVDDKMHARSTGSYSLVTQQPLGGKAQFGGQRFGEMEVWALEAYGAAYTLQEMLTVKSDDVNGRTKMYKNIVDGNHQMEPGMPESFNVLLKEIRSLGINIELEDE
T1 sequence (P0A8T7 whole entry): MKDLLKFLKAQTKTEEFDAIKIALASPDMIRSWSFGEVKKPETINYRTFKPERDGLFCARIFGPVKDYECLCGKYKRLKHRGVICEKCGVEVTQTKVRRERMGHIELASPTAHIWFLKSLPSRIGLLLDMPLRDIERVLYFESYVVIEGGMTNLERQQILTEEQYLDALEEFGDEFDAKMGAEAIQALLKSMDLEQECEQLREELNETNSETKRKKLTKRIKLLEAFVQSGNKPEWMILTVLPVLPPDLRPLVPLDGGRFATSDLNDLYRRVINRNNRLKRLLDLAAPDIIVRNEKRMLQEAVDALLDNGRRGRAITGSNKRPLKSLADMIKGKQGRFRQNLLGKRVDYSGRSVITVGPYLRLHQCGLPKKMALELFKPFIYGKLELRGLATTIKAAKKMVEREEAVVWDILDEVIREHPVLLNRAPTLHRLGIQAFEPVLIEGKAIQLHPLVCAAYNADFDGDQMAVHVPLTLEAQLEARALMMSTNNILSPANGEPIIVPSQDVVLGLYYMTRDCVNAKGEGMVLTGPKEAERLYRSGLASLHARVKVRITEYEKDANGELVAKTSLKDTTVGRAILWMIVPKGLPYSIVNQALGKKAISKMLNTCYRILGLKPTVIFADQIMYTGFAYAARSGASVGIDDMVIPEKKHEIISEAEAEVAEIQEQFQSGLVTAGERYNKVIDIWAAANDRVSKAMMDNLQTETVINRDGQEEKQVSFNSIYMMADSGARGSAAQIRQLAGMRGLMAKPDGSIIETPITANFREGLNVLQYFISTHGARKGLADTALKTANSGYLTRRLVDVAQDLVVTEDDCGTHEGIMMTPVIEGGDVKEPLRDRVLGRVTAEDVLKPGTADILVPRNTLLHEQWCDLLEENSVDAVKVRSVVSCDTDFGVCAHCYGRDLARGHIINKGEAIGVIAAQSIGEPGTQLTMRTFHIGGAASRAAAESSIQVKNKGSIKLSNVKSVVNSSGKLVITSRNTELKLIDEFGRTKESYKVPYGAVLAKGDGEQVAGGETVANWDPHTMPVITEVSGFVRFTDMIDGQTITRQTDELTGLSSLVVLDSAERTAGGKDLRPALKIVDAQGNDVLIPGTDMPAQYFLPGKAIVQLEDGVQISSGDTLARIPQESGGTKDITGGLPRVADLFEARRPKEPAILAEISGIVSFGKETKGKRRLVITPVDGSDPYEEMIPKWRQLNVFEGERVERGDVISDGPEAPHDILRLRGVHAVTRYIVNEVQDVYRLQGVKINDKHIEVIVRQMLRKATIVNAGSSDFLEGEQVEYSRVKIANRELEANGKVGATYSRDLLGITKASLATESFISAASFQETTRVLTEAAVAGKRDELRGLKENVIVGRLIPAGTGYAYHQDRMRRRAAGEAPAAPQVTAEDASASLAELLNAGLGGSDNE
T1 sequence (P0A7Z4 whole entry): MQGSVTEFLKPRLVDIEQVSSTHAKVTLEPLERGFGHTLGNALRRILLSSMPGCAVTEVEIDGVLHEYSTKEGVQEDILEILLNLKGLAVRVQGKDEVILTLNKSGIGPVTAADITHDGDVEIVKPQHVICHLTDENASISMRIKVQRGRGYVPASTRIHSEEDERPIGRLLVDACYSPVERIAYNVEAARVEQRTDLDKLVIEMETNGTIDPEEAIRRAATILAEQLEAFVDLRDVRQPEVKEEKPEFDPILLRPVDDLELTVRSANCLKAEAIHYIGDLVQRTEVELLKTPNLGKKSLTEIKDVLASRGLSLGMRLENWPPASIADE
T1 sequence (P0A800 whole entry): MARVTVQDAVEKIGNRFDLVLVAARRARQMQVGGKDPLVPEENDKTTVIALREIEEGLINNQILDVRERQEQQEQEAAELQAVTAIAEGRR

In the case of `O=c1[nH][nH]c(-c2ccccc2)c1-c1cccc(C(F)(F)F)c1` [Example 16, 5-phenyl-4-(3-trifluoromethylphenyl)-1,2-dihydropyrazol-3-one], the IC50 [1, 2] is reported as over 500 µM, the MIC (B. su; Table 2) is reported as under 500 µM and the MIC (S. au; Table 2) is reported as under 500 µM. It also gave an MIC (E.c(tolC)) of under 500 µM.
In the case of `Cc1c(-c2c[nH]nc2-c2ccc(F)cc2)sc2ccccc12` [Example 37], the IC50 ([1]; Table 3, heteroaryl compounds) is reported as under 500 µM, the MIC (B. su; Table 3) is reported as under 500 µM and the MIC (S. au; Table 3) is reported as under 500 µM. The MIC (E.c(tolC)) was under 500 µM.
In the case of `Clc1ccc(-c2[nH]ncc2-c2ccccc2)cc1` [Example 3], the IC50 [1, 3] is reported as over 500 µM, the MIC (B. su; Table 1) is reported as over 500 µM and the MIC (S. au; Table 1) is reported as over 500 µM. It also gave an MIC (E.c(tolC)) of over 500 µM.
`O=C(COc1ccccc1)Nc1cccc(-c2c[nH]nc2-c2ccc(F)c(C(F)(F)F)c2)c1` [Example 35] was tested, and the IC50 [1, 3] was under 500 µM, the MIC (B. su; Table 1) was over 500 µM and the MIC (S. au; Table 1) was under 500 µM. For the same compound, the MIC (E.c(tolC)) was over 500 µM.
In the case of `Clc1cccc(-c2cn[nH]c2-c2ccc(Cl)c(Cl)c2)c1` [Example 7], the IC50 [1, 3] is reported as over 500 µM, the MIC (B. su; Table 1) is reported as under 500 µM and the MIC (S. au; Table 1) is reported as under 500 µM. For the same compound, the MIC (E.c(tolC)) was under 500 µM.
Compound `O=C(Nc1ccc(Cl)c(C(F)(F)F)c1)NC1CCN(c2ccc(-c3c[nH]nc3-c3ccc(F)cc3)cc2C(F)(F)F)C1` (stereo not drawn) [Example 25] has an IC50 [1, 3] of under 500 µM, an MIC (B. su; Table 1) of under 500 µM and an MIC (S. au; Table 1) of under 500 µM. It also gave an MIC (E.c(tolC)) of over 500 µM.
`O=[N+]([O-])c1cccc(-c2c[nH]nc2-c2ccc(N3CCCCC3)c(C(F)(F)F)c2)c1` [Example 33] was tested, and the IC50 [1, 3] was under 500 µM, the MIC (B. su; Table 1) was under 500 µM and the MIC (S. au; Table 1) was under 500 µM. The MIC (E.c(tolC)) was over 500 µM.
Compound `O=[N+]([O-])c1cccc(-c2c[nH]nc2-c2ccc(F)c(C(F)(F)F)c2)c1` [Example 32] has an IC50 [1, 3] of under 500 µM, an MIC (B. su; Table 1) of under 500 µM and an MIC (S. au; Table 1) of under 500 µM. It also gave an MIC (E.c(tolC)) of over 500 µM.
In the case of `Nc1cccc(-c2c[nH]nc2-c2ccc(F)c(C(F)(F)F)c2)c1` [Example 34], the IC50 [1, 3] is reported as under 500 µM, the MIC (B. su; Table 1) is reported as under 500 µM and the MIC (S. au; Table 1) is reported as under 500 µM. The MIC (E.c(tolC)) was under 500 µM.
With `Fc1ccc(-c2cn[nH]c2-c2cccc(Cl)c2)cc1C(F)(F)F` [Example 11] the IC50 [1, 3] was over 500 µM, the MIC (B. su; Table 1) was under 500 µM and the MIC (S. au; Table 1) was under 500 µM. For the same compound, the MIC (E.c(tolC)) was under 500 µM.
With `O=c1[nH][nH]c(-c2cccc(C(F)(F)F)c2)c1-c1ccccc1` [Example 14, 4-phenyl-5-(3-trifluoromethylphenyl)-1,2-dihydropyrazol-3-one] the IC50 [1, 2] was under 500 µM, the MIC (B. su; Table 2) was under 500 µM and the MIC (S. au; Table 2) was under 500 µM. For the same compound, the MIC (E.c(tolC)) was under 500 µM.
`CS(=O)(=O)Nc1cccc(-c2c[nH]nc2-c2ccc(F)c(C(F)(F)F)c2)c1` [Example 36] gave an IC50 [1, 3] of under 500 µM, an MIC (B. su; Table 1) of under 500 µM and an MIC (S. au; Table 1) of under 500 µM. It also gave an MIC (E.c(tolC)) of under 500 µM.
`CCNC1CCN(c2ccc(-c3c[nH]nc3-c3ccc(F)cc3)cc2C(F)(F)F)C1` (stereo not drawn) [Example 19] was tested, and the IC50 [1, 3] was under 500 µM, the MIC (B. su; Table 1) was under 500 µM and the MIC (S. au; Table 1) was under 500 µM. The MIC (E.c(tolC)) was under 500 µM.
Compound `NS(=O)(=O)c1ccc(CCNc2ccc(-c3c[nH]nc3-c3ccc(F)cc3)cc2C(F)(F)F)cc1` [Example 22] has an IC50 [1, 3] of under 500 µM, an MIC (B. su; Table 1) of under 500 µM and an MIC (S. au; Table 1) of under 500 µM. The MIC (E.c(tolC)) was under 500 µM.
Compound `Clc1cccc(-c2[nH]ncc2-c2ccc(Cl)c(Cl)c2)c1` [Example 8] has an IC50 [1, 3] of under 500 µM, an MIC (B. su; Table 1) of under 500 µM and an MIC (S. au; Table 1) of under 500 µM. The MIC (E.c(tolC)) was under 500 µM.
Compound `CS(=O)(=O)Nc1ccc(CCNc2ccc(-c3c[nH]nc3-c3ccc(F)cc3)cc2C(F)(F)F)cc1` [Example 23] has an IC50 [1, 3] of over 500 µM, an MIC (B. su; Table 1) of over 500 µM and an MIC (S. au; Table 1) of over 500 µM. The MIC (E.c(tolC)) was over 500 µM.
`O=c1[nH][nH]c(-c2ccc(Cl)cc2)c1-c1cccc(C(F)(F)F)c1` [Example 17, 5-(4-chlorophenyl)-4-(3-trifluoromethylphenyl)-1,2-dihydropyrazol-3-one] showed an IC50 [1, 2] of under 500 µM, an MIC (B. su; Table 2) of under 500 µM and an MIC (S. au; Table 2) of under 500 µM. It also gave an MIC (E.c(tolC)) of under 500 µM.
Compound `O=C(NCCCNc1cc(-c2c[nH]nc2-c2ccc(F)cc2)cc(C(F)(F)F)c1)Nc1ccc(Cl)c(C(F)(F)F)c1` [Example 31] has an IC50 [1, 3] of under 500 µM, an MIC (B. su; Table 1) of under 500 µM and an MIC (S. au; Table 1) of under 500 µM. For the same compound, the MIC (E.c(tolC)) was over 500 µM.
